Test results taken from EP3985010A1, “SPIROCYCLIC INHIBITORS OF HEPATITIS B VIRUS” (priority 2020, dated 2022).

System: HBV
Assay: Anti-HBV activity in vitro: quantification of extracellular HBV DNA by direct qPCR in HepAD38 cells
Assay type: cell-based
Conditions: Hepatitis B virus, doxycycline-free medium, 96 hours at 37°C, 8-point dose-response curve, read-out: HBV inh EC50
Text: HepAD38 cell line (Ladner et al., Antimicrob Agents Chemother, 1997, 41, 1715-20) was used for HBV inhibition assays. HepAD38 is a subclone, derived from hepatoblastoma cell line HepG2 (ATCC® Number: HB-8065™), that expresses HBV genome under the transcriptional control of a tetracycline-responsive promoter in a TET-OFF system: addition of doxycycline, an antibiotic belonging to the class of tetracycline, suppresses HBV replication, while its removal switches on the process allowing HBV viral particles release in the cell supernatant. HepAD38 cell line is maintained in DMEM/F12, supplemented with 10% of fetal bovine serum, 1% of glutamine, 1% of penicillin/streptomycin, 0.4 mg/ml G418 and 0,3 ug/ml tetracycline. For the HBV inhibition assay, doxycycline-free medium is used in order to allow virion production.
HBV inhibition activity in vitro was performed in 96 multiwell plates. During the initial (primary) screening, compounds were first tested in triplicates at concentrations of 0.02 µM, 0.1µM, 0.5µM and 1µM. For selected compounds, an 8-point dose-response curve was obtained using 1:2 serial dilutions (starting from 0.01µM, 0.1µM, 0.4µM or 5 µM, depending on the degree of inhibition observed during the primary screening). From the dose-response curves, half maximal effective concentration (EC50) could be calculated (see also below).
In more detail, compounds - typically dissolved in DMSO stock solutions - were diluted to 2x the final desired concentration in 100 µl of the above medium (without doxycycline) and plated in three replicates in the 96-well plates.
Simultaneously, HepAD38 cells - extensively pre-washed in doxycycline-free medium in order to induce HBV production - were suspended at 2^∗10^4 cells in 100 µl of doxycycline-free medium and added to each well of the plate, to yield a final assay volume of 200 µl DMSO - used for stock solutions and compounds dilutions - which was always present in the assays at a final concentration of 0.5%.
Plates were then incubated 96 hours at 37°C and then subjected to cell viability assays and extracellular HBV quantification, in order to evaluate both the cytotoxic potential and the antiviral activity of compounds. Cytotoxicity was assessed by a commercial fluorescence assay that measures the metabolic activity of cells, directly related to cell viability (Cell Titer Blue, Promega). Anti-HBV activity was evaluated by quantification of extracellular HBV DNA with direct qPCR. In particular, supernatant was collected and centrifuged for cell debris clarification, viral DNA was extracted from virions by addition of lysis buffer (1 mM 1,4-dithiothreitol, 0.2% sodium dodecyl sulphate) and incubated at 95°C for 10 min. Samples were then diluted 1:40 and real time PCR amplification was performed with SYBR green assay (Power SYBR™ Green PCR Master Mix-Thermo Fisher Scientific) and specific HBV primer (HBV-DF:5'-[…]-3' (SEQ ID No. 1), HBV-DR:5'-[…]-3' (SEQ ID No. 2)).
Antiviral activity data for each compound are reported as EC50 value (see Table 1 legend). Excel and Graphpad Prism programs are typically used for data elaboration and EC50 calculation.

| SMILES | EC50 [nM] |
| --- | --- |
| C[C@@H](NC(=O)C(=O)N1CCC2(CC1)COc1c(c(Cl)n(C)c1C(=O)Nc1ccc(F)c(Cl)c1)S(=O)(=O)N2)C(F)(F)F [Example E30, (R)-8'-chloro-N-(3-chloro-4-fluorophenyl)-7'-methyl-1-(2-oxo-2-((1,1,1-trifluoropropan-2-yl)amino)acetyl)-2'H,4'H,7'H-spiro[piperidine-4,3'-pyrrolo[3,4-b][1,4,5]oxathiazepine]-6'-carboxamide 1',1'-dioxide] | < 500 |
| C[C@H](NC(=O)C(=O)N1CC[C@]2(COc3c(cn(C)c3C(=O)Nc3ccc(F)c(C(F)F)c3)S(=O)(=O)N2)C1)C(F)(F)F [Example E23, (R)-N-(3-(difluoromethyl)-4-fluorophenyl)-7'-methyl-1-(2-oxo-2-(((S)-1,1,1-trifluoropropan-2-yl)amino)acetyl)-2'H,4'H,7'H-spiro[pyrrolidine-3,3'-pyrrolo[3,4-b][1,4,5]oxathiazepine]-6'-carboxamide 1',1'-dioxide] | < 500 |
| Cn1cc2c(c1C(=O)Nc1ccc(F)c(Cl)c1)OC[C@@]1(CCN(C(=O)C(=O)NC(C)(C)C(F)(F)F)C1)NS2(=O)=O [Example E26, (S)-N-(3-chloro-4-fluorophenyl)-7'-methyl-1-(2-oxo-2-((1,1,1-trifluoro-2-methylpropan-2-yl)amino)acetyl)-2'H,4'H,7'H-spiro[pyrrolidine-3,3'-pyrrolo[3,4-b][1,4,5]oxathiazepine]-6'-carboxamide 1',1'-dioxide] | < 500 |
| Cn1cc2c(c1C(=O)Nc1ccc(F)c(Cl)c1)OCC1(CN(C(=O)C(=O)N3CC(F)(F)C3)C1)NS2(=O)=O [Example E17, N-(3-chloro-4-fluorophenyl)-1-(2-(3,3-difluoroazetidin-1-yl)-2-oxoacetyl)-7'-methyl-2'H,4'H,7'H-spiro[azetidine-3,3'-pyrrolo[3,4-b][1,4,5]oxathiazepine]-6'-carboxamide 1',1'-dioxide] | < 500 |
| C[C@@H](NC(=O)C(=O)N1CCC2(CC1)COc1c(cn(C)c1C(=O)Nc1ccc(F)c(C(F)F)c1)S(=O)(=O)N2)C(F)(F)F [Example E8, (R)-N-(3-(difluoromethyl)-4-fluorophenyl)-7'-methyl-1-(2-oxo-2-((1,1,1-trifluoropropan-2-yl)amino)acetyl)-2'H,4'H,7'H-spiro[piperidine-4,3'-pyrrolo[3,4-b][1,4,5]oxathiazepine]-6'-carboxamide 1',1'-dioxide] | < 500 |
| C[C@@H](NC(=O)C(=O)N1CC[C@@]2(COc3c(cn(C)c3C(=O)Nc3ccc(F)c(C(F)F)c3)S(=O)(=O)N2)C1)C(F)(F)F [Example E11, (S)-N-(3-(difluoromethyl)-4-fluorophenyl)-7'-methyl-1-(2-oxo-2-(((R)-1,1,1-trifluoropropan-2-yl)amino)acetyl)-2'H,4'H,7'H-spiro[pyrrolidine-3,3'-pyrrolo[3,4-b][1,4,5]oxathiazepine]-6'-carboxamide 1',1'-dioxide] | < 500 |
| Cn1cc2c(c1C(=O)Nc1ccc(F)c(C(F)F)c1)OCC1(CN(C(=O)C(=O)NC3CC3)C1)NS2(=O)=O [Example E19, 1-(2-(cyclopropylamino)-2-oxoacetyl)-N-(3-(difluoromethyl)-4-fluorophenyl)-7'-methyl-2'H,4'H,7'H-spiro[azetidine-3,3'-pyrrolo[3,4-b][1,4,5]oxathiazepine]-6'-carboxamide 1',1'-dioxide] | < 500 |
| Cn1cc2c(c1C(=O)Nc1ccc(F)c(C(F)F)c1)OC[C@]1(CCN(C(=O)C(=O)NC(C)(C)C(F)(F)F)C1)NS2(=O)=O [Example E24, (R)-N-(3-(difluoromethyl)-4-fluorophenyl)-7'-methyl-1-(2-oxo-2-((1,1,1-trifluoro-2-methylpropan-2-yl)amino)acetyl)-2'H,4'H,7'H-spiro[pyrrolidine-3,3'-pyrrolo[3,4-b][1,4,5]oxathiazepine]-6'-carboxamide 1',1'-dioxide] | < 500 |
